Laboratory results reported in PubChem BioAssay (NCI).
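These data come from cells grown in 96-well plates and exposed to compound for 48 hours at five concentrations. TGI: total growth inhibition.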

Columns and labels:
Test in all cases: NCI tumour cell line growth inhibition, 48 h
[1] = tested on: DLD-1 colon
[2] = tested on: DMS 273 small cell lung
[3] = tested on: HOP-18 NSCLC
[4] = tested on: KM20L2 colon
[5] = tested on: LXFL 529 NSCLC
[6] = tested on: M19-MEL melanoma
[7] = tested on: OVCAR-5 ovarian
[8] = tested on: RXF-631 renal
[9] = tested on: SNB-78 CNS
[10] = tested on: XF 498 CNS
[11] = tested on: DMS 114 small cell lung
[12] = tested on: P388 leukemia
[13] = tested on: P388/ADR leukemia
[14] = tested on: SN12K1 renal
[15] = tested on: SR leukemia

SMILES: CC(=O)NNc1nc(C)c(C(/C=C/c2ccc(Cl)cc2)=N\NS(=O)(=O)c2ccc(C)cc2)s1
- TGI [1]: > 100 µM
- TGI [2]: > 100 µM
- TGI [3]: > 100 µM
- TGI [4]: > 100 µM
- TGI [5]: > 100 µM
- TGI [6]: > 100 µM
- TGI [7]: > 100 µM
- TGI [8]: > 100 µM
- TGI [9]: > 100 µM
- TGI [10]: > 100 µM

SMILES: CN(C)CCNCc1c2ccccc2c(CNCCN(C)C)c2ccccc12
- TGI [1]: > 100 µM
- TGI [11]: > 70.1 µM
- TGI [2]: > 100 µM
- TGI [3]: > 100 µM
- TGI [4]: 26 µM
- TGI [6]: > 57.1 µM
- TGI [7]: 43.5 µM
- TGI [12]: > 56.2 µM
- TGI [13]: > 100 µM
- TGI [14]: 67.6 µM
- TGI [9]: 98.4 µM
- TGI [10]: > 100 µM

SMILES: CCc1cccc(C(C)C)c1NC(=O)C(=O)C(C(=O)C(=O)OC)c1nc2ccccc2[nH]c1=O (centres undefined)
- TGI [11]: > 100 µM
- TGI [2]: > 100 µM
- TGI [3]: > 100 µM
- TGI [4]: > 100 µM
- TGI [5]: > 100 µM
- TGI [6]: > 100 µM
- TGI [7]: > 100 µM
- TGI [8]: > 100 µM
- TGI [9]: > 100 µM
- TGI [15]: > 100 µM
- TGI [10]: > 100 µM

SMILES: C[C@@]12CC[C@H]3[C@@H]4CCC(=O)N[C@@]4(C)CC[C@@H]3[C@@]1(C)CC[C@H](OC(=O)Cc1ccc(N(CCCl)CCCl)cc1)C2
- TGI [1]: 47.1 µM
- TGI [11]: 28.8 µM
- TGI [2]: 30.3 µM
- TGI [3]: 34 µM
- TGI [4]: 32.7 µM
- TGI [6]: 32.8 µM
- TGI [7]: 31.5 µM
- TGI [12]: 32 µM
- TGI [13]: 58.8 µM
- TGI [14]: 32.5 µM
- TGI [9]: 39.2 µM
